Measurements taken from patent publication US11331369B2, “Endoparasitic depsipeptides” (Zoetis Services LLC, priority 2017, dated 2022).

The compounds below were run on microfilariae of Dirofilaria immitis (assay: Dirofilaria immitis, Microfilaria (DiMF) In vitro Assay). Settings: 72 h, read-out: DiMF Minimum Effective Dose (MED), approximately 72 hours incubation, microfilariae assessed for survival or paralysis.
Format: cell-based
`CC(C)C[C@H]1C(=O)O[C@H](Cc2ccc(Cn3ccc(Br)cc3=O)cc2)C(=O)N(C)[C@@H](CC(C)C)C(=O)O[C@H](C)C(=O)N(C)[C@@H](CC(C)C)C(=O)O[C@H](Cc2ccc(Cn3ccc(Br)cc3=O)cc2)C(=O)N(C)[C@@H](CC(C)C)C(=O)O[C@H](C)C(=O)N1C` [Example 9-20, (3S,6R,9S,12R,15S,18R,21S,24R)-6,18-bis(4-((4-bromo-2-oxopyridin-1 (2H)-yl)methyl)benzyl)-3,9,15,21-tetraisobutyl-4,10,12,16,22,24-hexamethyl-1,7,13,19-tetraoxa-4,10,16,22-tetraazacyclotetracosan-2,5,8,11,14,17,20,23-octaone] gave a minimal effective concentration of 0.01 to 0.1 µM.
`CC(C)C[C@H]1C(=O)O[C@H](Cc2ccc(Cn3ccc(Cl)cc3=O)cc2)C(=O)N(C)[C@@H](CC(C)C)C(=O)O[C@H](C)C(=O)N(C)[C@@H](CC(C)C)C(=O)O[C@H](Cc2ccc(Cn3ccc(Cl)cc3=O)cc2)C(=O)N(C)[C@@H](CC(C)C)C(=O)O[C@H](C)C(=O)N1C` [Example 9-21, (3S,6R,9S,12R,15S,18R,21S,24R)-6,18-bis(4-((4-chloro-2-oxopyridin-1 (2H)-yl)methyl)benzyl)-3,9,15,21-tetraisobutyl-4,10,12,16,22,24-hexamethyl-1,7,13,19-tetraoxa-4,10,16,22-tetraazacyclotetracosan-2,5,8,11,14,17,20,23-octaone] was tested, and the minimal effective concentration was 0.001 to 0.01 µM.
`Cc1ccn(Cc2ccc(C[C@H]3OC(=O)[C@H](CC(C)C)N(C)C(=O)[C@@H](C)OC(=O)[C@H](CC(C)C)N(C)C(=O)[C@@H](Cc4ccc(Cn5ccc(C)cc5=O)cc4)OC(=O)[C@H](CC(C)C)N(C)C(=O)[C@@H](C)OC(=O)[C@H](CC(C)C)N(C)C3=O)cc2)c(=O)c1` [Example 9-27, (3S,6R,9S,12R,15S,18R,21S,24R)-3,9,15,21-tetraisobutyl-4,6,10,16,18,22-hexamethyl-12,24-bis(4-((4-methyl-2-oxopyridin-1 (2H)-yl)methyl)benzyl)-1,7,13,19-tetraoxa-4,10,16,22-tetraazacyclotetracosan-2,5,8,11,14,17,20,23-octaone] gave a minimal effective concentration of 0.01 to 0.1 µM.
Compound `CC(C)C[C@H]1C(=O)O[C@H](Cc2ccc(Cn3nnc4ccccc43)cc2)C(=O)N(C)[C@@H](CC(C)C)C(=O)O[C@H](C)C(=O)N(C)[C@@H](CC(C)C)C(=O)O[C@H](Cc2ccc(Cn3nnc4ccccc43)cc2)C(=O)N(C)[C@@H](CC(C)C)C(=O)O[C@H](C)C(=O)N1C` [Example 9-29, (3S,6R,9S,12R,15S,18R,21S,24R)-6,18-bis(4-((1H-benzo[d][1,2,3]triazol-1-yl)methyl)benzyl)-3,9,15,21-tetraisobutyl-4,10,12,16,22,24-hexamethyl-1,7,13,19-tetraoxa-4,10,16,22-tetraazacyclotetracosan-2,5,8,11,14,17,20,23-octaone] has a minimal effective concentration of 0.01 to 0.1 µM.
With `CC(C)C[C@H]1C(=O)O[C@H](Cc2ccc(Cn3cccc3/C(N)=N/O)cc2)C(=O)N(C)[C@@H](CC(C)C)C(=O)O[C@H](C)C(=O)N(C)[C@@H](CC(C)C)C(=O)O[C@H](Cc2ccc(Cn3cccc3C(N)=NO)cc2)C(=O)N(C)[C@@H](CC(C)C)C(=O)O[C@H](C)C(=O)N1C` [Example 9-30, N′-hydroxy-1-[[4-[[(2R,5S,8R,11S,14R,17S,20R,23S)-14-[[4-[[2-[(Z)—N′-hydroxycarbamimidoyl]pyrrol-1-yl]methyl]phenyl]methyl]-5,11,17,23-tetraisobutyl-4,8,10,16,20,22-hexamethyl-3,6,9,12,15,18,21,24-octaoxo-1,7,13,19-tetraoxa-4,10,16,22-tetrazacyclotetracos-2-yl]methyl]phenyl]methyl]pyrrole-2-carboxamidine] the minimal effective concentration was 0.001 to 0.01 µM.
Compound `CC(C)C[C@H]1C(=O)O[C@H](Cc2ccc(Cn3cc(-c4ccccc4)nn3)cc2)C(=O)N(C)[C@@H](CC(C)C)C(=O)O[C@H](C)C(=O)N(C)[C@@H](CC(C)C)C(=O)O[C@H](Cc2ccccc2)C(=O)N(C)[C@@H](CC(C)C)C(=O)O[C@H](C)C(=O)N1C` [Example 9-33, (3S,6R,9S,12R,15S,18R,21S,24R)-6-benzyl-3,9,15,21-tetraisobutyl-4,10,12,16,22,24-hexamethyl-18-(4-((4-phenyl-1H-1,2,3-triazol-1-yl)methyl)benzyl)-1,7,13,19-tetraoxa-4,10,16,22-tetraazacyclotetracosan-2,5,8,11,14,17,20,23-octaone] has a minimal effective concentration of 0.01 to 0.1 µM.
For `CC(C)C[C@H]1C(=O)O[C@H](Cc2ccc(Cn3cc4ccccc4n3)cc2)C(=O)N(C)[C@@H](CC(C)C)C(=O)O[C@H](C)C(=O)N(C)[C@@H](CC(C)C)C(=O)O[C@H](Cc2ccc(Cn3cc4ccccc4n3)cc2)C(=O)N(C)[C@@H](CC(C)C)C(=O)O[C@H](C)C(=O)N1C` [Example 9-35, (3S,6R,9S,12R,15S,18R,21S,24R)-6,18-bis(4-((2H-indazol-2-yl)methyl)benzyl)-3,9,15,21-tetraisobutyl-4,10,12,16,22,24-hexamethyl-1,7,13,19-tetraoxa-4,10,16,22-tetraazacyclotetracosan-2,5,8,11,14,17,20,23-octaone], the minimal effective concentration was 0.01 to 0.1 µM.
Work on `CC(C)C[C@H]1C(=O)O[C@H](Cc2ccc(Cn3cc4c(n3)CCC4)cc2)C(=O)N(C)[C@@H](CC(C)C)C(=O)O[C@H](C)C(=O)N(C)[C@@H](CC(C)C)C(=O)O[C@H](Cc2ccc(Cn3cc4c(n3)CCC4)cc2)C(=O)N(C)[C@@H](CC(C)C)C(=O)O[C@H](C)C(=O)N1C` [Example 9-42, (3S,6R,9S,12R,15S,18R,21S,24R)-6,18-bis[[4-(5,6-dihydro-4H-cyclopenta[c]pyrazol-2-ylmethyl)phenyl]methyl]-3,9,15,21-tetraisobutyl-4,10,12,16,22,24-hexamethyl-1,7,13,19-tetraoxa-4,10,16,22-tetrazacyclotetracosane-2,5,8,11,14,17,20,23-octaone] yielded a minimal effective concentration of 0.01 to 0.1 µM.
`CC(C)C[C@H]1C(=O)O[C@H](Cc2ccc(Cn3ncc4cccnc43)cc2)C(=O)N(C)[C@@H](CC(C)C)C(=O)O[C@H](C)C(=O)N(C)[C@@H](CC(C)C)C(=O)O[C@H](Cc2ccc(Cn3ncc4cccnc43)cc2)C(=O)N(C)[C@@H](CC(C)C)C(=O)O[C@H](C)C(=O)N1C` [Example 9-49, (3S,6R,9S,12R,15S,18R,21S,24R)-6,18-bis(4-((1H-pyrazolo[3,4-b]pyridin-1-yl)methyl)benzyl)-3,9,15,21-tetraisobutyl-4,10,12,16,22,24-hexamethyl-1,7,13,19-tetraoxa-4,10,16,22-tetraazacyclotetracosan-2,5,8,11,14,17,20,23-octaone] was tested, and the minimal effective concentration was 0.001 to 0.01 µM.
`CC(C)C[C@H]1C(=O)O[C@H](Cc2ccc(CN3CCS(=O)(=O)c4cccnc43)cc2)C(=O)N(C)[C@@H](CC(C)C)C(=O)O[C@H](C)C(=O)N(C)[C@@H](CC(C)C)C(=O)O[C@H](Cc2ccc(CN3CCS(=O)(=O)c4cccnc43)cc2)C(=O)N(C)[C@@H](CC(C)C)C(=O)O[C@H](C)C(=O)N1C` [Example 9-62, (3S,6R,9S,12R,15S,18R,21S,24R)-6,18-bis(4-((1,1-dioxido-2,3-dihydro-4H-pyrido[3,2-b][1,4]thiazin-4-yl)methyl)benzyl)-3,9,15,21-tetraisobutyl-4,10,12,16,22,24-hexamethyl-1,7,13,19-tetraoxa-4,10,16,22-tetraazacyclotetracosan-2,5,8,11,14,17,20,23-octaone] was tested, and the minimal effective concentration was 0.01 to 0.1 µM.
Work on `CC(C)C[C@H]1C(=O)O[C@H](Cc2ccc(CN3CCOc4cccnc43)cc2)C(=O)N(C)[C@@H](CC(C)C)C(=O)O[C@H](C)C(=O)N(C)[C@@H](CC(C)C)C(=O)O[C@H](Cc2ccc(CN3CCOc4cccnc43)cc2)C(=O)N(C)[C@@H](CC(C)C)C(=O)O[C@H](C)C(=O)N1C` [Example 9-64, (3S,6R,9S,12R,15S,18R,21S,24R)-6,18-bis[[4-(2,3-dihydropyrido[3,2-b][1,4]oxazin-4-ylmethyl)phenyl]methyl]-3,9,15,21-tetraisobutyl-4,10,12,16,22,24-hexamethyl-1,7,13,19-tetraoxa-4,10,16,22-tetrazacyclotetracosane-2,5,8,11,14,17,20,23-octaone] yielded a minimal effective concentration of 0.01 to 0.1 µM.
For `CC(C)C[C@H]1C(=O)O[C@H](C)C(=O)N(C)[C@@H](CC(C)C)C(=O)O[C@H](Cc2ccccc2)C(=O)N(C)[C@@H](CC(C)C)C(=O)O[C@H](C)C(=O)N(C)[C@@H](CC(C)C)C(=O)O[C@@H](Cc2ccc(CN3CCCCC3)cc2)C(=O)N1C` [Example 10-2, (3S,6R,9S,12R,15S,18S,21S,24R)-6-benzyl-3,9,15,21-tetraisobutyl-4,10,12,16,22,24-hexamethyl-18-(4-(piperidin-1-ylmethyl)benzyl)-1,7,13,19-tetraoxa-4,10,16,22-tetraazacyclotetracosan-2,5,8,11,14,17,20,23-octaone], the minimal effective concentration was 0.01 to 0.1 µM.
With `CC(C)C[C@H]1C(=O)O[C@H](Cc2ccc(CN3CCN(C(=O)OC(C)(C)C)CC3)cc2)C(=O)N(C)[C@@H](CC(C)C)C(=O)O[C@H](C)C(=O)N(C)[C@@H](CC(C)C)C(=O)O[C@H](Cc2ccccc2)C(=O)N(C)[C@@H](CC(C)C)C(=O)O[C@H](C)C(=O)N1C` [Example 10-9, tert-butyl 4-(4-(((2R,5S,8R,11S,14R,17S,20R,23S)-14-benzyl-5,11,17,23-tetraisobutyl-4,8,10,16,20,22-hexamethyl-3,6,9,12,15,18,21,24-octaoxo-1,7,13,19-tetraoxa-4,10,16,22-tetraazacyclotetracosan-2-yl)methyl)benzyl)piperazine-1-carboxylate] the minimal effective concentration was 0.01 to 0.1 µM.
Work on `CC(C)C[C@H]1C(=O)O[C@H](Cc2ccc(CN3CCN(S(C)(=O)=O)CC3)cc2)C(=O)N(C)[C@@H](CC(C)C)C(=O)O[C@H](C)C(=O)N(C)[C@@H](CC(C)C)C(=O)O[C@H](Cc2ccccc2)C(=O)N(C)[C@@H](CC(C)C)C(=O)O[C@H](C)C(=O)N1C` [Example 10-10, (3S,6R,9S,12R,15S,18R,21S,24R)-6-benzyl-3,9,15,21-tetraisobutyl-4,10,12,16,22,24-hexamethyl-18-(4-((4-(methylsulfonyl)piperazin-1-yl)methyl)benzyl)-1,7,13,19-tetraoxa-4,10,16,22-tetraazacyclotetracosan-2,5,8,11,14,17,20,23-octaone] yielded a minimal effective concentration of 0.01 to 0.1 µM.
